# Where a SMILES comes first, the peptide text is derived from it. [ ]: non-standard residue; d: D form. Thr(SO3H) = C[C@@H](OS(=O)(=O)O)[C@H](N)C(=O)O; sY = N[C@@H](Cc1ccc(OS(=O)(=O)O)cc1)C(=O)O; NMeF = CN[C@@H](Cc1ccccc1)C(=O)O; Nle = CCCC[C@H](N)C(=O)O
# Key:
# Rat Pancreas = target: T1, Rat Pancreas (Rattus norvegicus, UniProt P30551); test: In vitro receptor binding assay, inhibition of ³H-CCK-8-(SO₃H) binding to rat pancreas homogenate; conditions: ³H-CCK-8-(SO₃H) 0.15 nM, 30 min at 25° C; read-out: Rat Pancreas (IC₅₀ value)
# T1 construct: pancreas 0.165 mg protein in 1 ml final volume; from tissue; host or cells: rat pancreas homogenate (membrane pellet)
# T1 sequence (P30551 1-444): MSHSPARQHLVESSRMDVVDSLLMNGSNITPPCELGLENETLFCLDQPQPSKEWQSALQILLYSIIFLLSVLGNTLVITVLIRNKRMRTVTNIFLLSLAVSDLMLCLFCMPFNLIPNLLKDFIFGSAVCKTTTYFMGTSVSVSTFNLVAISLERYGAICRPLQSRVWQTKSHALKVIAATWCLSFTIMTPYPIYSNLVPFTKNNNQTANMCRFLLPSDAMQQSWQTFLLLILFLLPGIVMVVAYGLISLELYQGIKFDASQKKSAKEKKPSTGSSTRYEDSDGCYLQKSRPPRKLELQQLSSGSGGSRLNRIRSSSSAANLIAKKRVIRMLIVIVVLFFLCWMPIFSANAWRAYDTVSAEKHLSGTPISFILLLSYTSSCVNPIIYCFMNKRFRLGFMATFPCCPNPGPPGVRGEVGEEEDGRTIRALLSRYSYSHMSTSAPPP
# Description: (§1) The tissue was homogenized 2 x for approx. 15 sec. at 0°C using a Polytron homogenizer at a setting of 6. The tissue was isolated by centrifugation at 48,000 x g for 10 min. at 0°C. […] Samples were incubated for 30 min. at 25° C and the incubation terminated by pouring the mixture onto a pre-wet Whatman GF/B filter on a Sandbeck Vacuum Filtration Manifold. The incubation tubes were washed with 2 x 3 ml of ice-cold HEPES Buffer #2 and the wash filtered through the GF/B filter. The filter was air dried for 10 min. and then placed in a scintillation vial with 12 ml of Beckman HP/b Ready-Solv scintillation cocktail. The vials were shaken for 2 hours and then counted using a Beckman Model 7800 liquid scintillation spectrometer.
# Bovine Striatum = target: T2, Bovine Striatum (Bos taurus, UniProt P79266); test: In vitro receptor binding assay, inhibition of ³H-CCK-8-(SO₃H) binding to bovine striatum homogenate; conditions: ³H-CCK-8-(SO₃H) 0.15 nM, 30 min at 25° C; read-out: Bovine Striatum (IC₅₀ value)
# T2 construct: tissue homogenate (striatum 0.26 mg protein in 2 ml final volume); from tissue; host or cells: bovine striatum homogenate (membrane pellet)
# T2 sequence (P79266 1-454): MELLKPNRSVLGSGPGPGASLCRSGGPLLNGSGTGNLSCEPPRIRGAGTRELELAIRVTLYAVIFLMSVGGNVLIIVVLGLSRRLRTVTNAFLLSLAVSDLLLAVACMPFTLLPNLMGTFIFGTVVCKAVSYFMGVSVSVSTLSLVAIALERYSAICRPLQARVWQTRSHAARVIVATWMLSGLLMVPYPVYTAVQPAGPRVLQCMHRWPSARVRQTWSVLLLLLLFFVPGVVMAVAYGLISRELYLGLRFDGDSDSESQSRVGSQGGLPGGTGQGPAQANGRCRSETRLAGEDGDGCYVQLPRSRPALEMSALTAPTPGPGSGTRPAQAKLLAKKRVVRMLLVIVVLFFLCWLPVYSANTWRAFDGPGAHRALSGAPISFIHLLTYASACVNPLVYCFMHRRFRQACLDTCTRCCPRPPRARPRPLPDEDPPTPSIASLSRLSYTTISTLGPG
# Description: as §1
Compound,IC50 (Rat Pancreas),IC50 (Bovine Striatum)
"CSCC[C@H](NC(=O)[C@H](Cc1ccc(OS(=O)(=O)O)cc1)NC(=O)[C@@H](N)CC(=O)O)C(=O)NCC(=O)N[C@@H](Cc1c[nH]c2ccccc12)C(=O)N[C@@H](CCSC)C(=O)N[C@@H](CC(=O)O)C(=O)N[C@@H](Cc1ccccc1)C(N)=O [CCK-8, reference compound]",0.001 to 0.0046 µM,0.001 to 0.0032 µM
"CSCC[C@H](NC(=O)[C@H](Cc1c[nH]c2ccccc12)NC(=O)CNC(=O)[C@H](Cc1ccc(OS(=O)(=O)O)cc1)NC(C)=O)C(=O)N[C@H](C(=O)N(C)[C@@H](Cc1ccccc1)C(N)=O)[C@@H](C)OS(=O)(=O)O [Example 2, Ac-Tyr(SO₃H)-Gly-Trp-Met-Thr(SO₃H)-N-methyl-Phe-NH₂] (Ac-[sY]GWM[Thr(SO3H)][NMeF]-NH2)",0.07 µM,1.6 µM
"CCCC[C@H](NC(=O)[C@H](Cc1ccc(OS(=O)(=O)O)cc1)NC(C)=O)C(=O)NCC(=O)N[C@@H](Cc1c[nH]c2ccccc12)C(=O)N[C@@H](CCCC)C(=O)N[C@H](C(=O)N(C)[C@@H](Cc1ccccc1)C(N)=O)[C@@H](C)OS(=O)(=O)O [Example 1, Ac-Tyr(SO₃H)-Nle-Gly-Trp-Nle-Thr(SO₃H)-N-methyl-Phe-NH₂] (Ac-[sY][Nle]GW[Nle][Thr(SO3H)][NMeF]-NH2)",0.00014 µM,0.245 µM
